Test results published in patent publication US9987276B2 (Celgene CAR LLC, priority 2008, dated 2018).
Where two headings read alike, the source gives them in different places.

Tests used:
ITK = ITK (Homo sapiens (Human), UniProt Q08881); test: Omnia assay for potency assessment against active forms of ITK kinase; type: biochemical; details: [ITK]=10 nM, [ATP]=25, [Y6-Sox]=10 μM; read-out: ITK Inhibition
Experimental: [ITK]=10 nM, [ATP]=25 [Y6-Sox]=10 μM (ATP KMapp=33 μM).

BTK [1] = biological target: T1, BTK (Homo sapiens (Human), UniProt Q06187); test: Omnia assay for potency assessment against BTK; type: biochemical; details: [BTK]=5 nM, Omnia assay; read-out: BTK Inhibition (IC50)
T1 sequence (Q06187 whole entry): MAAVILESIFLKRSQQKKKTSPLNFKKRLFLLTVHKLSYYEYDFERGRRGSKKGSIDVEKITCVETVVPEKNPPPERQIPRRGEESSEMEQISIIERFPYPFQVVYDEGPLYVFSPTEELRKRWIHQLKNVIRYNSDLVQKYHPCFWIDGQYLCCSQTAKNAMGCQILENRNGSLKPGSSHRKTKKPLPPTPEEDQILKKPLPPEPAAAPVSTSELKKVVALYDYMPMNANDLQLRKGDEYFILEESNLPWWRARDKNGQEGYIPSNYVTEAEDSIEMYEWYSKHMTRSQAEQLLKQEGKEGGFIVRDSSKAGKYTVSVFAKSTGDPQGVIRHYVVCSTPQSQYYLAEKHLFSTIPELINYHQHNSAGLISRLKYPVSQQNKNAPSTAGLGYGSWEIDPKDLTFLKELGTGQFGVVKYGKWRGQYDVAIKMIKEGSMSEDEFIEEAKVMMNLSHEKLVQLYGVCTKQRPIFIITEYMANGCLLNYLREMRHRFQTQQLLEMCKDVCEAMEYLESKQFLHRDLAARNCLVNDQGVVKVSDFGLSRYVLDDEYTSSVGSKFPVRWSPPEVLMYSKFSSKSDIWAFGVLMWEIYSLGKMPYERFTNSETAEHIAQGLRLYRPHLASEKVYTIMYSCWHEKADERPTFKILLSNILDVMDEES
Experimental: The modified BTK-optimized reagent conditions for the above protocol are:
[BTK]=5 nM, [ATP]=[…], [Y5-Sox]=[…] (ATP KMapp˜[…]).

EGFR-WT = EGFR-WT (Homo sapiens (Human), UniProt P00533); test: Omnia assay for potency assessment against EGFR (WT)
Sequence of EGFR-WT (P00533 668-1210): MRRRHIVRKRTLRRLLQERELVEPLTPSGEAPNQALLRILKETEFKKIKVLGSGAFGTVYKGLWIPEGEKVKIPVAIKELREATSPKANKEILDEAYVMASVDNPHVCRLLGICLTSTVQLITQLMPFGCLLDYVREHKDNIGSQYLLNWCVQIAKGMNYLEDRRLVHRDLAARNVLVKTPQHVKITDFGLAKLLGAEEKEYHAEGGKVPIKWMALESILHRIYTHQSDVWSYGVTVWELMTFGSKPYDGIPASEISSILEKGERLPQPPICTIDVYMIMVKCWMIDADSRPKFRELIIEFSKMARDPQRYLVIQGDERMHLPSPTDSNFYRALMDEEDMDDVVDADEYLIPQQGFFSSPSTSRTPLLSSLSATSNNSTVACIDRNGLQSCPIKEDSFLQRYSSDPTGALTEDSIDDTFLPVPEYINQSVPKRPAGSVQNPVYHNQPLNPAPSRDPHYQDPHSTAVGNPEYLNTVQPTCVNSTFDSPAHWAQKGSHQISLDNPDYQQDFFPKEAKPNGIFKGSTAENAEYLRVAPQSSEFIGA

BTK [2] = biological target: T1, BTK; test: BTK Ramos cellular assay (PLCγ2 phosphorylation); type: cell-based; details: Ramos cells, 1 hour compound, anti-IgM stimulation, p-PLCγ2; read-out: BTK Inhibition (IC50), BTK Ramos cellular inhibition
BTK [3] = biological target: T1, BTK; test: Mass spectrometry for BTK (intact protein); type: binding; details: 1 hr, 10× fold excess of compound
Experimental: Intact BTK was incubated for 1 hr at a 10× fold excess of I-7 to protein. Aliquots (2 μl) of the samples were diluted with 10 μl of 0.1% TFA prior to micro C4 ZipTipping directly onto the MALDI target using Sinapinic acid as the desorption matrix (10 mg/ml in 0.1% TFA:Acetonitrile 20:80).

BMX = BMX (Homo sapiens (Human), UniProt P51813); test: Omnia assay for potency assessment against active forms of BMX kinase; type: biochemical; details: [BMX]=2.5 nM, [ATP]=100 μM, [Y5-Sox]=7.5 μM; read-out: BMX Inhibition
Sequence of BMX (P51813 whole entry): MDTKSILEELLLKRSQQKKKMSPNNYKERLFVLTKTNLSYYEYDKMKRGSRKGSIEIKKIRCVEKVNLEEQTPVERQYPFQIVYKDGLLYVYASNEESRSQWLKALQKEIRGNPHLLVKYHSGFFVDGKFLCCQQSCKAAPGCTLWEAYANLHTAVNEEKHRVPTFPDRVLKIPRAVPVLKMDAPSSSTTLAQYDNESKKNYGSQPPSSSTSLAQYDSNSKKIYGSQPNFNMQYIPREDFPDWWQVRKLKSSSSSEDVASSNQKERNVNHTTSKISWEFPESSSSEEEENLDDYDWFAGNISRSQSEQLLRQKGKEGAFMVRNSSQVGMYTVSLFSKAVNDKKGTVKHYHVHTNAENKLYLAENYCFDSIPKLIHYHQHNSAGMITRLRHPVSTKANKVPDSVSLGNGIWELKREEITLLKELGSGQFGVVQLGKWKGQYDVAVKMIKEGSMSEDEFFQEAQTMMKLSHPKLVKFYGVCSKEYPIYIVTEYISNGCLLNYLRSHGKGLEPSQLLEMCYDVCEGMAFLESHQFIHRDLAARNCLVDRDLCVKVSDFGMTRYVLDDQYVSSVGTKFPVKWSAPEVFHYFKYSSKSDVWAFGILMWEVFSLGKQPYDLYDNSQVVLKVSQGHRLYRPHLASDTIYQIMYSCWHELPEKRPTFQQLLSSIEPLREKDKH
Experimental: Briefly, 10× stocks of EGFR-WT (PV3872) from Invitrogen and EGFR-T790M/L858R (40350) from BPS Bioscience, San Diego, Calif., 1.13×ATP (AS001A) and appropriate Tyr-Sox conjugated peptide substrates (KCZ1001) were prepared in 1× kinase reaction buffer consisting of 20 mM Tris, pH 7.5, 5 mM MgCl2, 1 mM EGTA, 5 mM β-glycerophosphate, 5% glycerol (10× stock, KB002A) and 0.2 mM DTT (DS001A).
This example describes continuous-read kinase assays to measure inherent potency of compound against active forms of BMX enzymes as described in Example 251 above except that the modified BMX-optimized reagent conditions are:
[BMX]=2.5 nM, [ATP]=100 μM, [Y5-Sox]=7.5 μM (ATP KMapp=107 μM).

EGFR-T790M/L858R = EGFR-T790M/L858R (Homo sapiens (Human), UniProt P00533, L858R/T790M); test: Omnia assay for potency assessment against EGFR (T790M/L858R); details: read-out: EGFR (T790M/L858R); EGFR mutant T790M/L858R
Sequence of EGFR-T790M/L858R (P00533 25-1210 T790M/L858R): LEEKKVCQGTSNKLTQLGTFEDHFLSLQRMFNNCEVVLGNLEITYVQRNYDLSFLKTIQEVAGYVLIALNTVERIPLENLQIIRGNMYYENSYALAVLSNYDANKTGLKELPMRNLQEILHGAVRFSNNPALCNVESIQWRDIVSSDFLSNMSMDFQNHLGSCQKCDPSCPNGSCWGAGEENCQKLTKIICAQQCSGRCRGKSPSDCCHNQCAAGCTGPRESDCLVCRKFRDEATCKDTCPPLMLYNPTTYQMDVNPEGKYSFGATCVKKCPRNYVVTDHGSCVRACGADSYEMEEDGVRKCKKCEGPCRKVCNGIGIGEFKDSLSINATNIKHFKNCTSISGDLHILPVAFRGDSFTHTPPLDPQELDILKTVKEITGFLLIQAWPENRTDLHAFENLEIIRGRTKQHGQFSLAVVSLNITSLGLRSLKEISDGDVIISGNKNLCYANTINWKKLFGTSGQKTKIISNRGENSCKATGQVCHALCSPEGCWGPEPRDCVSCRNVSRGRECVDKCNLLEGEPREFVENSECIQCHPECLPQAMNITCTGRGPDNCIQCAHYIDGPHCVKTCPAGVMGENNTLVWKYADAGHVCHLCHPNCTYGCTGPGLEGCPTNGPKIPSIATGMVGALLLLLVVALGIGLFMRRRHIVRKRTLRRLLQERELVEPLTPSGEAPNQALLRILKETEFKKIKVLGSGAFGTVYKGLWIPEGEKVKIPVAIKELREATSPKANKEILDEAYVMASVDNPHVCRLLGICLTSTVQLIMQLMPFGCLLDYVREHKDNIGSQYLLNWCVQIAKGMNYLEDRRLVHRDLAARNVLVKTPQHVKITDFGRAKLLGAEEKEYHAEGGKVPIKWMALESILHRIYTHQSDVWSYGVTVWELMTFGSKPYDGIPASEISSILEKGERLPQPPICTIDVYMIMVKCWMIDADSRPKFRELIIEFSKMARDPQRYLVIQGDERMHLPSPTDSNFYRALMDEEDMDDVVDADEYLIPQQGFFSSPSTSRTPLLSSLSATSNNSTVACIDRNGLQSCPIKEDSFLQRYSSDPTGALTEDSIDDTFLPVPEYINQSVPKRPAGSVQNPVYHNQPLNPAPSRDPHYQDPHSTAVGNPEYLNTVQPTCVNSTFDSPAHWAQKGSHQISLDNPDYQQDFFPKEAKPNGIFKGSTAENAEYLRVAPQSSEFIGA

BTK [4] = biological target: T1, BTK; test: Washout experiment with Ramos cells; type: cell-based; details: 100 nM compound for 1 hour, then washout
Experimental: Ramos cells were serum starved for one hour in RPMI media+1% glutamine at 37° C. After starvation, Ramos cells were treated with 100 nM compound diluted in serum free RPMI media for 1 hour. After compound treatment, the media was removed and cells were washed with compound-free media. Subsequently, Ramos cells were washed every 2 hours and resuspended in fresh compound-free media. Cells were collected at specified timepoints, treated with 1 ug anti-human IgM (Southern Biotech cat #2022-01) for 10 minutes on ice to induce BCR signaling and then washed in PBS. Ramos cells were then lysed in Cell Extraction Buffer (Invitrogen FNN0011) supplemented with Roche complete protease inhibitor tablets (Roche 11697498001) and phosphatase inhibitors (Roche 04 906 837 001) and 18 ug total protein lysate was loaded in each lane. Inhibition of BTK kinase activity was assayed by measuring its substrate (PLCγ2) phosphorylation by western blot with phospho-specific antibodies from Cell Signaling Technologies cat #3871. The results of this experiment with compounds I-2, I-4 and I-7 are depicted in FIGS. 1, 2 and 3.

EGFR T790M = EGFR T790M (Homo sapiens (Human), UniProt P00533, T790M); test: EGFR mutant T790M inhibition assay; type: biochemical
Sequence of EGFR T790M (P00533 25-1210 T790M): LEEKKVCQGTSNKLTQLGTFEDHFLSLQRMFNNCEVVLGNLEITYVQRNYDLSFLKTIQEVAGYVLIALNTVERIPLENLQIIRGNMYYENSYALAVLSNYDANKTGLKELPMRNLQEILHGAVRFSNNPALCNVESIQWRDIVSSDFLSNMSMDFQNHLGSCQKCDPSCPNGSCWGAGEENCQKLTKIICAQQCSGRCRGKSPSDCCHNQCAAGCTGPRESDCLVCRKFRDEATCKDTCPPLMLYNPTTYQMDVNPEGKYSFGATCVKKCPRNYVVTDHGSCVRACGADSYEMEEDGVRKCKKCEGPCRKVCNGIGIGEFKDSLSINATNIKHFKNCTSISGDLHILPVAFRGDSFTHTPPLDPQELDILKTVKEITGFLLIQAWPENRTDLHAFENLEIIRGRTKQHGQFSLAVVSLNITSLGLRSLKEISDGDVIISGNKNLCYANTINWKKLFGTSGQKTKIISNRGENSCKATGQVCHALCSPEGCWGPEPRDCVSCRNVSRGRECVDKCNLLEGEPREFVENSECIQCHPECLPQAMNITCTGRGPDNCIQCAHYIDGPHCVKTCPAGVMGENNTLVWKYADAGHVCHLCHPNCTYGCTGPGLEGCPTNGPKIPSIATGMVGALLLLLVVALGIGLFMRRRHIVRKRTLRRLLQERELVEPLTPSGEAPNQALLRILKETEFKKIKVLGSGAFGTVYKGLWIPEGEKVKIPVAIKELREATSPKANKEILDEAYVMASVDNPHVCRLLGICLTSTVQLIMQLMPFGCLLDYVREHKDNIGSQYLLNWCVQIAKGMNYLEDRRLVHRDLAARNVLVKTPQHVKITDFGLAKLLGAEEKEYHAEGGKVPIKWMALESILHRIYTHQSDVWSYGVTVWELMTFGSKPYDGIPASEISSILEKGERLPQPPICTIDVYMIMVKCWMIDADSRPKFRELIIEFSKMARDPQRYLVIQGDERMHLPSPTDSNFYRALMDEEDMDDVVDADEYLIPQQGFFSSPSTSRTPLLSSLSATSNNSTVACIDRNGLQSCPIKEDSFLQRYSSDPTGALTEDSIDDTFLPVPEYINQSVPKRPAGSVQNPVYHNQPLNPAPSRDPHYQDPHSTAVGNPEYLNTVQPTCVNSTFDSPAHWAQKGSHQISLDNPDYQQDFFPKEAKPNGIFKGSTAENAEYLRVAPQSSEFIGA
Experimental: The Omnia Assay Protocol for potency assessment against EGFR is performed as described in Example 251 above except that the EGFR-WT- and EGFR T790M/L858R-modified optimized reagent conditions are: […]

[5] = read-out: EGFR (wild type inhibition), EGFR wild type

Sequence of ITK (Q08881 whole entry): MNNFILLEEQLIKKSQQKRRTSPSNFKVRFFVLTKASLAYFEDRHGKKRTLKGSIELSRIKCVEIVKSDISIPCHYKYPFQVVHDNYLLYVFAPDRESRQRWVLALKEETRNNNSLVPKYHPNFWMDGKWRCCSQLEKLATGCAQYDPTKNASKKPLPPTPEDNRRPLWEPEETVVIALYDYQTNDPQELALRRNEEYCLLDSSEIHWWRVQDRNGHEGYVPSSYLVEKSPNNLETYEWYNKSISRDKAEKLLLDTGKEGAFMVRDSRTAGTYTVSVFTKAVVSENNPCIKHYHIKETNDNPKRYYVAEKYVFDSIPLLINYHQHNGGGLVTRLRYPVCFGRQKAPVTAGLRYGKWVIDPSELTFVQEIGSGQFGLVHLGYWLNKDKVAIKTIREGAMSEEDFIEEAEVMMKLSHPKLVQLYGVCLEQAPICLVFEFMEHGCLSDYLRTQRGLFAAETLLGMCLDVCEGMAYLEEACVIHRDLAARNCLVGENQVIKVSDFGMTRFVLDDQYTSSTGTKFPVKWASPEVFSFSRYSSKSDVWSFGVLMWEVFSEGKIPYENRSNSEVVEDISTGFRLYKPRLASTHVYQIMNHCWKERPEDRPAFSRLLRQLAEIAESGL

SMILES | IC50 (ITK) [nM] | IC50 (BTK [1]) [nM] | IC50 (EGFR-WT) [nM] | IC50 (BTK [2]) [nM] | covalent modification of BTK (mass spectrometry) (BTK [3]) | IC50 (BMX) [nM] | IC50 (EGFR-T790M/L858R) [nM] | BTK Inhibition Type (BTK [4]) | IC50 (EGFR-WT; [5]) [nM] | IC50 (EGFR T790M) [nM]
C=CC(=O)N(C)Cc1ccc(Nc2nc(Nc3ccccc3)ncc2C)cc1 [Compound I-219, N-methyl-N-(4-(5-methyl-2-(phenylamino)pyrimidin-4-ylamino)benzyl)acrylamide] | 10 to 100 | < 10 | 10 to 100 | 10 to 100 | completely modify | – | – | – | – | –
Cc1cnc(Nc2ccccc2)nc1Nc1cccc(NC(=O)/C=C/CN(C)C)c1 [Compound I-38, (E)-4-(dimethylamino)-N-(3-(5-methyl-2-(phenylamino)pyrimidin-4-ylamino)phenyl)but-2-enamide] | 10 to 100 | < 10 | 10 to 100 | 10 to 100 | – | < 10 | < 10 | reversible | – | –
C=CC(=O)Nc1cccc(Nc2nccc(Nc3cccc(C)c3)n2)c1 [Compound I-1, N-(3-(4-(m-tolylamino)pyrimidin-2-ylamino)phenyl)acrylamide] | 100 to 1000 | < 10 | – | – | – | – | < 10 | – | < 10 | –
C=CC(=O)Nc1cccc(Nc2nc(Nc3ccccc3)ncc2F)c1 [Compound I-28, N-(3-(5-fluoro-2-(phenylamino)pyrimidin-4-ylamino)phenyl)acrylamide] | 10 to 100 | < 10 | 10 to 100 | – | – | < 10 | – | irreversible | – | –
C=CC(=O)N1CCC[C@@H](Nc2nc(Nc3cccc(OC)c3)ncc2F)C1 [Compound I-195, (R)-1-(3-(5-fluoro-2-(3-methoxyphenylamino)pyrimidin-4-ylamino)piperidin-1-yl)prop-2-en-1-one] | 10 to 100 | < 10 | 10 to 100 | 10 to 100 | completely modify | – | – | – | – | –
C=CC(=O)Nc1cccc(Nc2nc(Nc3cccc(OC(F)(F)F)c3)ncc2F)c1 [Compound I-244, N-(3-(5-fluoro-2-(3-(trifluoromethoxy)phenylamino)pyrimidin-4-ylamino)phenyl)acrylamide] | 100 to 1000 | < 10 | 100 to 1000 | 10 to 100 | completely modify | < 10 | – | – | – | –
C=CC(=O)N1CCOc2ccc(Nc3ncc(F)c(Nc4cccc(Cl)c4)n3)cc21 [Compound I-149, 1-(6-(4-(3-chlorophenylamino)-5-fluoropyrimidin-2-ylamino)-2H-benzo[b][1,4]oxazin-4(3H)-yl)prop-2-en-1-one] | 1000 to 10000 | < 10 | – | 10 to 100 | completely modify | – | – | – | 1000 to 10000 | –
C=C(C#N)C(O)c1ccc(Nc2nc(Nc3ccccc3)ncc2F)cc1 (centres unmarked) [Compound I-161, 2-((4-(5-fluoro-2-(phenylamino)pyrimidin-4-ylamino)phenyl)(hydroxy)methyl)acrylonitrile] | – | < 10 | 10 to 100 | – | completely modify | – | – | – | – | –
C=CC(=O)Nc1cccc(Nc2nc(Nc3ccccc3)ncc2C(N)=O)c1 [Compound I-230, 4-(3-acrylamidophenylamino)-2-(phenylamino)pyrimidine-5-carboxamide] | < 10 | < 10 | – | < 10 | – | – | – | irreversible | – | –
C=CC(=O)Nc1cccc(Nc2nc(Nc3cccc(OC)c3)ncc2C(F)(F)F)c1 [Compound I-242, N-(3-(5-trifluoromethyl-2-(3-methoxyphenylamino)pyrimidin-4-ylamino)phenyl)acrylamide] | < 10 | < 10 | 10 to 100 | < 10 | – | – | – | irreversible | – | –
C=CC(=O)Nc1cccc(Oc2nc(Nc3ccccc3)ncc2C)c1 [Compound I-248, N-(3-(5-methyl-2-(phenylamino)pyrimidin-4-yloxy)phenyl)acrylamide] | < 10 | < 10 | – | < 10 | – | < 10 | – | irreversible | < 10 | –
C=CC(=O)Nc1cccc(Nc2nc(Nc3ccc(OC)nc3)ncc2F)c1 [Compound I-243, N-(3-(5-fluoro-2-(6-methoxypyridin-3-ylamino)pyrimidin-4-ylamino)phenyl)acrylamide] | 10 to 100 | < 10 | 10 to 100 | < 10 | – | – | – | irreversible | – | –
CC(C)=CC(=O)c1cccc(Nc2nc(Nc3cccc(OCCN(C)C)c3)ncc2F)c1 [Compound I-207] | < 10 | < 10 | 100 to 1000 | 100 to 1000 | completely modify | – | – | – | – | –
C#CCOc1cccc(Nc2ncc(C)c(Nc3cccc(NC(=O)C=C)c3)n2)c1 [Compound I-35, N-(3-(5-methyl-2-(3-(prop-2-ynyloxy)phenylamino)pyrimidin-4-ylamino)phenyl) acrylamide] | 10 to 100 | < 10 | 10 to 100 | < 10 | – | < 10 | < 10 | irreversible | – | –
C=CC(=O)Nc1ccc(Nc2nc(Nc3ccccc3)ncc2C)cc1 [Compound I-39, N-(4-(5-methyl-2-(phenylamino)pyrimidin-4-ylamino)phenyl) acrylamide] | 100 to 1000 | < 10 | – | 10 to 100 | – | < 10 | 100 to 1000 | – | 1000 to 10000 | –
C=CC(=O)Nc1ccc(C)c(Nc2ncc(C)c(Nc3cccc(C)c3)n2)c1 [Compound I-8, N-(4-methyl-3-(5-methyl-4-(m-tolylamino)pyrimidin-2-ylamino)phenyl)acrylamide] | – | < 10 | – | 100 to 1000 | – | – | < 10 | – | < 10 | –
C=CC(=O)Nc1cccc(Nc2nc(Nc3ccc(F)cc3)ncc2F)c1 [Compound I-247, N-(3-(5-fluoro-2-(4-fluorophenylamino)pyrimidin-4-ylamino)phenyl)acrylamide] | 10 to 100 | < 10 | 10 to 100 | < 10 | – | < 10 | – | irreversible | – | –
C=CC(=O)Nc1cccc(Oc2nc(Nc3ccccc3)ncc2F)c1 [Compound I-228, N-(3-(5-fluoro-2-(phenylamino)pyrimidin-4-yloxy)phenyl)acrylamide] | 10 to 100 | < 10 | 10 to 100 | < 10 | – | – | – | irreversible | – | –
C=CC(=O)Nc1cccc(Nc2ncc(F)c(Nc3cccc(C)c3)n2)c1 [Compound I-3, N-(3-(5-fluoro-4-(m-tolylamino)pyrimidin-2-ylamino)phenyl) acrylamide] | – | < 10 | – | 10 to 100 | – | – | < 10 | – | < 10 | < 10
C=C(C#N)C(O)c1cccc(Nc2nc(Nc3ccc(OCCOC)cc3)ncc2F)c1 (centres unmarked) [Compound I-71, 2-((3-(5-fluoro-2-(4-(2-methoxyethoxy)phenylamino)pyrimidin-4-ylamino)phenyl)(hydroxy)methyl)acrylonitrile] | – | < 10 | 10 to 100 | – | completely modify | – | – | – | – | –
